The test system of experiment [1] is Pseudomonas aeruginosa PAM 1723 strain highly expressing the drug efflux pump. Kind of experiment: Effect of combined use with antimicrobial agent (levofloxacin, aztreonam) on multidrug resistant Pseudomonas aeruginosa. The note with it: 18 hours, MHB; for MPC8 AZT: minimum concentration of test compound required to enhance antibacterial activity of aztreonam at 1/8 or less of MIC; for MPC4 LVFX: minimum concentration of test compound required to enhance antibacterial activity of levofloxacin applied at 1/4 of MIC; for MPC8 LVFX: minimum concentration of test compound required to enhance antibacterial activity of levofloxacin applied at 1/8 or less of MIC. The experiment is classed as cell-based. From the text: Effect of Combined Use with Antimicrobial Agent on Multidrug Resistant Pseudomonas aeruginosa
As multidrug resistant Pseudomonas aeruginosa, Pseudomonas aeruginosa PAM 1723 strain highly expressing the drug efflux pump was used. As antimicrobial drugs for the combinational uses, levofloxacin (LVFX) as a quinolone antibacterial agent and aztreonam (AZT) as a monobactam antibiotic were used. Each of the compounds shown in Table 1 with Example No., which falls within the compounds of the present invention, was subjected to the measurement of its minimum concentration (μg/ml) that was required to enhance the antibacterial activity of levofloxacin when the test compound was used in combination with levofloxacin applied at a concentration of 1/4, or 1/8 or less of the minimum inhibitory concentration against the PAM 1723 strain. […] Effects as combinational uses for 18 hours was indicated for each of the drugs. Effects were determined by visually observing the turbidity of the medium. The Müller-Hinton broth (MHB, Difco) was used as a medium, and the inoculum of the bacteria was 1×10^6 CFU/ml.

In experiment [2] the test system is Pseudomonas aeruginosa wild strain PAM 1020. Kind of experiment: Combined use of a pump inhibitor, levofloxacin (LVFX) and meropenem (MEPM) evaluated by the three-dimensional checker board method. The experiment is classed as cell-based. As to conditions: for MIC: Pseudomonas aeruginosa, agent used alone, PAM 1020 strain. As for the experimental part: (1) Effect of Combined Used of a Pump Inhibitor, Levofloxacin (LVFX) and Meropenem (MEPM) Evaluated by the Three-Dimensional Checker Board Method
The effect was measured by the three-dimensional checker board method by using Pseudomonas aeruginosa wild strain PAM 1020. The test strain was inoculated into Mueller-Hinton broth containing LVFX, MEPM (at 11 concentration levels and 0 μg/ml) and the compound of Example 26 (40-0.625 μg/ml and 0 μg/ml) at a concentration of 10^6 CFU/ml and cultured at 37° C. for 18 hours. Then, MIC was measured for sole and combined use. Measurement was performed by the checker board method and FIC index was calculated according to the following equation. FIC index=a/a0+b/b0+c/c0 wherein a0: MIC for Agent A used alone, a: MIC for Agent A when Agents A, B and C are used in combination, b0: MIC for Agent B used alone, b: MIC for Agent B when Agents A, B and C are used in combination, c0: MIC for Agent C used alone, c: MIC for Agent C when Agents A, B and C are used in combination.
It was determined that there was synergistic effect when FIC index was 0.75 or less, additive effect or weak synergistic effect when the index was more than 0.75 but not more than 1.125, no effect of combined use when the index was more than 1.125 but not more than 3.0, and antagonistic effect when the index was more than 3.0.

`CC(C)c1csc(COc2ccn3c(=O)c(/C=C/C(=O)O)c(N4CCCC(O)C4)nc3c2)n1` (centres unmarked) [Example 5, (E)-3-{2-(3-Hydroxypiperidino)-8-[(4-isopropyl-1,3-thiazol-2-yl)methoxy]-4-oxo-4H-pyrido[1,2-a]pyrimidin-3-yl}-2-propenoic acid]: in experiment [1], the “MPC8 AZT” value is 8 µg/mL, the “MPC4 LVFX” value stood at 0.5 µg/mL and the “MPC8 LVFX” value turned out to be 8 µg/mL.
`CC(C)(C)c1csc(NC(=O)c2ccn3c(=O)c(-c4nnn[nH]4)cnc3c2)n1` [Example 10, N8-[4-(tert-Butyl)-1,3-thiazol-2-yl]-4-oxo-3-(2H-1,2,3,4-tetrazol-5-yl)-4H-pyrido[1,2-a]pyrimidine-8-carboxamide]: in experiment [1], the “MPC8 AZT” value stood at 4 µg/mL, the “MPC4 LVFX” value is 2 µg/mL and the “MPC8 LVFX” value came to 16 µg/mL.
Regarding `CC(C)(C)c1csc(NC(=O)c2ccn3c(=O)c(/C=C/C(=O)O)c(N4CCC[C@@H](OC(N)=O)C4)nc3c2)n1` [Example 18, (E)-3-[2-{(3R)-3-[(Aminocarbonyl)oxy]hexahydro-1-pyridinyl}-8-({[4-(tert-butyl)-1,3-thiazol-2-yl]amino}carbonyl)-4-oxo-4H-pyrido[1,2-a]pyrimidin-3-yl]-2-propenoic acid], in experiment [1], the “MPC8 AZT” value turned out to be 0.5 µg/mL, the “MPC4 LVFX” value is recorded as “≦0.25 μg/ml” and the “MPC8 LVFX” value was determined as 1 µg/mL.
Consider `CC(C)c1csc(/C=C/c2ccn3c(=O)c(/C=C/C(=O)O)c(N4CCN(C(=O)[C@@H](N)CCCNC(=N)N)CC4)nc3c2)n1` [Example 78, (E)-3-{2-[4-((2 S)-2-Amino-5-{[amino(imino)methyl]amino}pentanoyl)-piperazino]-8-[(E)-2-(4-isopropyl-1,3-thiazol-2-yl)-1-ethenyl]-4-oxo-4H-pyrido[1,2-a]-pyrimidin-3-yl}-2-propenoic acid], for which, in experiment [1], the “MPC8 AZT” value is 1 µg/mL, the “MPC4 LVFX” value came out at 0.5 µg/mL and the “MPC8 LVFX” value was 1 µg/mL.
`CC(C)c1csc(CCc2ccn3c(=O)c(/C=C/C(=O)[O-])c(N4CCN(C(=O)C[N+]56CCC(CC5)CC6)CC4)nc3c2)n1` [Example 94, (E)-3-{2-4-[2-(1-Azabicyclo[2.2.2]oct-1-yl)acetyl]piperazino-8-[2-(4-isopropyl-1,3-thiazol-2-yl)ethyl]-4-oxo-4H-pyrido[1,2-a]pyrimidin-3-yl}-2-propenoic acid]: in experiment [1], the “MPC8 AZT” value was determined as 16 µg/mL, the “MPC4 LVFX” value was 4 µg/mL and the “MPC8 LVFX” value came to 16 µg/mL.
With `C[C@H]1COc2c(N3CCN(C)CC3)c(F)cc3c(=O)c(C(=O)O)cn1c23` [LVFX, levofloxacin], the FIC index is recorded as 1.031 in experiment [2] (LVFX + MEPM 0.016 μg/ml, compound of Example 26 0 μg/ml, PAM 1020); 1.0625 in experiment [2] (LVFX + MEPM 0.0313 μg/ml, compound of Example 26 0 μg/ml, PAM 1020); 1.125 in experiment [2] (LVFX + MEPM 0.0625 μg/ml, compound of Example 26 0 μg/ml, PAM 1020); 1.250 in experiment [2] (LVFX + MEPM 0.125 μg/ml, compound of Example 26 0 μg/ml, PAM 1020); 1.5 in experiment [2] (LVFX + MEPM 0.25 μg/ml, compound of Example 26 0 μg/ml, PAM 1020). Further, the LVFX conc. in experiment [2] (LVFX conc. in combination with MEPM 0.016 μg/ml and compound of Example 26 0.625 μg/ml, PAM 1020) turned out to be 0.25 µg/mL; in experiment [2] (LVFX conc. in combination with MEPM 0.016 μg/ml and compound of Example 26 1.25 μg/ml, PAM 1020) it was 0.25 µg/mL; in experiment [2] (LVFX conc. in combination with MEPM 0.016 μg/ml and compound of Example 26 2.5 μg/ml, PAM 1020), 0.25 µg/mL; in experiment [2] (LVFX conc. in combination with MEPM 0.016 μg/ml and compound of Example 26 5 μg/ml, PAM 1020), 0.125 µg/mL; in experiment [2] (LVFX conc. in combination with MEPM 0.016 μg/ml and compound of Example 26 10 μg/ml, PAM 1020) it was 0.125 µg/mL; in experiment [2] (LVFX conc. in combination with MEPM 0.016 μg/ml and compound of Example 26 20 μg/ml, PAM 1020) it was 0.125 µg/mL. The LVFX conc. in experiment [2] (LVFX conc. in combination with MEPM 0.016 μg/ml and compound of Example 26 40 μg/ml, PAM 1020) was 0.125 µg/mL; in experiment [2] (LVFX conc. in combination with MEPM 0.016 μg/ml, compound of Example 26 0 μg/ml, PAM 1020), 0.25 µg/mL; in experiment [2] (LVFX conc. in combination with MEPM 0.0313 μg/ml and compound of Example 26 0.625 μg/ml, PAM 1020), 0.25 µg/mL; in experiment [2] (LVFX conc. in combination with MEPM 0.0313 μg/ml and compound of Example 26 1.25 μg/ml, PAM 1020), 0.25 µg/mL; in experiment [2] (LVFX conc. in combination with MEPM 0.0313 μg/ml and compound of Example 26 2.5 μg/ml, PAM 1020) it was 0.125 µg/mL; in experiment [2] (LVFX conc. in combination with MEPM 0.0313 μg/ml and compound of Example 26 5 μg/ml, PAM 1020) it was 0.125 µg/mL. Moreover, the LVFX conc. in experiment [2] (LVFX conc. in combination with MEPM 0.0313 μg/ml and compound of Example 26 10 μg/ml, PAM 1020) turned out to be 0.125 µg/mL; in experiment [2] (LVFX conc. in combination with MEPM 0.0313 μg/ml and compound of Example 26 20 μg/ml, PAM 1020), 0.125 µg/mL; in experiment [2] (LVFX conc. in combination with MEPM 0.0313 μg/ml and compound of Example 26 40 μg/ml, PAM 1020), 0.125 µg/mL; in experiment [2] (LVFX conc. in combination with MEPM 0.0313 μg/ml, compound of Example 26 0 μg/ml, PAM 1020), 0.25 µg/mL; in experiment [2] (LVFX conc. in combination with MEPM 0.0625 μg/ml and compound of Example 26 0.625 μg/ml, PAM 1020) it was 0.25 µg/mL; in experiment [2] (LVFX conc. in combination with MEPM 0.0625 μg/ml and compound of Example 26 1.25 μg/ml, PAM 1020), 0.125 µg/mL. In addition, the LVFX conc. in experiment [2] (LVFX conc. in combination with MEPM 0.0625 μg/ml and compound of Example 26 2.5 μg/ml, PAM 1020) came out at 0.125 µg/mL; in experiment [2] (LVFX conc. in combination with MEPM 0.0625 μg/ml and compound of Example 26 5 μg/ml, PAM 1020), 0.0625 µg/mL; in experiment [2] (LVFX conc. in combination with MEPM 0.0625 μg/ml and compound of Example 26 10 μg/ml, PAM 1020), 0.0625 µg/mL; in experiment [2] (LVFX conc. in combination with MEPM 0.0625 μg/ml and compound of Example 26 20 μg/ml, PAM 1020), 0.0313 µg/mL; in experiment [2] (LVFX conc. in combination with MEPM 0.0625 μg/ml and compound of Example 26 40 μg/ml, PAM 1020), 0.0313 µg/mL; in experiment [2] (LVFX conc. in combination with MEPM 0.0625 μg/ml, compound of Example 26 0 μg/ml, PAM 1020), 0.25 µg/mL. For the same compound, the LVFX conc. in experiment [2] (LVFX conc. in combination with MEPM 0.125 μg/ml and compound of Example 26 0.625 μg/ml, PAM 1020) amounted to 0.125 µg/mL; in experiment [2] (LVFX conc. in combination with MEPM 0.125 μg/ml and compound of Example 26 1.25 μg/ml, PAM 1020), 0.0625 µg/mL; in experiment [2] (LVFX conc. in combination with MEPM 0.125 μg/ml and compound of Example 26 2.5 μg/ml, PAM 1020), 0.0313 µg/mL; in experiment [2] (LVFX conc. in combination with MEPM 0.125 μg/ml and compound of Example 26 5 μg/ml, PAM 1020) it was 0.0156 µg/mL; in experiment [2] (LVFX conc. in combination with MEPM 0.125 μg/ml and compound of Example 26 10 μg/ml, PAM 1020), 0.0039 µg/mL; in experiment [2] (LVFX conc. in combination with MEPM 0.125 μg/ml, compound of Example 26 0 μg/ml, PAM 1020), 0.25 µg/mL. For the same compound, the LVFX conc. in experiment [2] (LVFX conc. in combination with MEPM 0.25 μg/ml and compound of Example 26 0.625 μg/ml, PAM 1020) came to 0.0078 µg/mL; in experiment [2] (LVFX conc. in combination with MEPM 0.25 μg/ml, compound of Example 26 0 μg/ml, PAM 1020) it was 2 µg/mL. Further, the MIC (usually the lowest concentration that inhibits growth of the organism) in experiment [2] was 0.25 µg/mL.
Take `C[C@@H](O)[C@H]1C(=O)N2C(C(=O)O)=C(S[C@@H]3CN[C@H](C(=O)N(C)C)C3)[C@H](C)[C@H]12` [MEPM, Meropenem]: the “effect of combined use of three types of drugs” value in experiment [2] (LVFX, MEPM and compound of Example 26 0.625-40 μg/ml, PAM 1020) is “apparent effects of the addition of MEPM were observed”. Further, in experiment [2], the MIC stood at 0.5 µg/mL. Also, in experiment [2] (compound of Example 26 0.625-40 μg/ml, PAM 1020), the “effect of MEPM on the combined use of two types of drugs, LVFX and the compound of Example 26” value is recorded as “effects of the addition of MEPM were clearly observed”.

Source of the values: patent US7056917B2, “Drug efflux pump inhibitor” (Daiichi Pharmaceutical Co., Ltd., priority 2001, dated 2006).
